In US20160158375A1, “DIPEPTIDE LINKED MEDICINAL AGENTS” (Indiana University Research and Technology Corporation, priority 2010, published 2016):
Where two headings read alike, the source gives them in different places. Square brackets hold non-standard residues; d marks the D form. Peptide text beside a SMILES is read from it. Sar = CNCC(=O)O

Key:
[1] = plasma; for Relative peak area (%), HPLC peak a: peak a molecular weight 702; for Relative peak area (%), HPLC peak b: peak b molecular weight 902
[2] = Rate of model dipeptide cleavage in PBS (HPLC / LC-MS); details: for Relative peak area (%), HPLC peak a / Relative peak area (%), HPLC peak b: PBS, 37° C.; for Relative peak area (%), HPLC peak a: peak a molecular weight 702; for Relative peak area (%), HPLC peak b: peak b molecular weight 902
Procedure: The solution was incubated at 37° C. […] The dipeptide cleavage was quenched by lowering the pH with an equal volume of 0.1% TFA. The rate of cleavage was qualitatively monitored by LC-MS and quantitatively studied by HPLC. The retention time and relative peak area for the prodrug and the parent model peptide were quantified using Peak Simple Chromatography software.
The flow rate was 1 ml/min.
The concentrations of the prodrugs and the model parent peptide were determined by their respective peak areas, ‘a’ and ‘b’ for each of the different collection times (Table 1). […] The slope of this plot provides the rate constant 1′.

Structure (SMILES): C[C@H](O)[C@@H](NC(=O)CNC(=O)[C@@H](CCCNC(=N)N)NC(=O)[C@H](NC(=O)[C@@H](Cc1c[nH]cn1)NC(=O)CN(C)C(=O)[C@@H](N)CCCCN)[C@H](C)O)C(=O)N[C@H](Cc1ccccc1)C(N)=O [peptide B, Lys-Sar-dHdTdRGdTdF-NH2] (H-K[Sar][dH][dT][dR]G[dT][dF]-NH2)
- Relative peak area (%), HPLC peak a ([1]; 5 h): 17.0%
- Relative peak area (%), HPLC peak b ([1]; 5 h): 83.0%
- Relative peak area (%), HPLC peak a ([1]; 11 h): 29.2%
- Relative peak area (%), HPLC peak b ([1]; 11 h): 70.8%
- Relative peak area (%), HPLC peak a ([1]; 24 h): 60.2%
- Relative peak area (%), HPLC peak b ([1]; 24 h): 39.8%
- Relative peak area (%), HPLC peak a ([1]; 32 h): 54.0%
- Relative peak area (%), HPLC peak b ([1]; 32 h): 46.0%
- Relative peak area (%), HPLC peak a ([1]; 48 h): 27.6%
- Relative peak area (%), HPLC peak b ([1]; 48 h): 72.4%

Structure (SMILES): C[C@@H](O)[C@H](NC(=O)CNC(=O)[C@H](CCCNC(=N)N)NC(=O)[C@H](CO)NC(=O)[C@H](Cc1c[nH]cn1)NC(=O)CN(C)C(=O)C(C)(C)N)C(=O)N[C@@H](Cc1ccccc1)C(N)=O [Compound 24]
- half-life at 1 mg/ml ([2]; buffer): 9 min

Structure (SMILES): C[C@@H](O)[C@H](NC(=O)CNC(=O)[C@H](CCCNC(=N)N)NC(=O)[C@H](CO)NC(=O)[C@H](Cc1c[nH]cn1)NC(=O)CN(C)C(=O)[C@@H](N)CCCCN)C(=O)N[C@@H](Cc1ccccc1)C(N)=O [peptide A, Lys-Sar-HSRGTF-NH2] (H-K[Sar]HSRGTF-NH2; N-terminus assumed)
- Relative peak area (%), HPLC peak a ([2]; 5 h): 26.5%
- Relative peak area (%), HPLC peak b ([2]; 5 h): 73.5%
- Relative peak area (%), HPLC peak a ([2]; 8 h): 28.9%
- Relative peak area (%), HPLC peak b ([2]; 8 h): 71.1%
- Relative peak area (%), HPLC peak a ([2]; 24 h): 28.8%
- Relative peak area (%), HPLC peak b ([2]; 24 h): 71.2%
- Relative peak area (%), HPLC peak a ([2]; 31 h): 77.7%
- Relative peak area (%), HPLC peak b ([2]; 31 h): 22.3%
- Relative peak area (%), HPLC peak a ([2]; 47 h): 90.0%
- Relative peak area (%), HPLC peak b ([2]; 47 h): 10.0%
